{"source": "paper PMC3352823", "about": "“In Vitro and In Vivo Activity of a Palladacycle Complex on Leishmania (Leishmania) amazonensis” (PLoS Neglected Tropical Diseases, 2012)", "system": "T1, L. (L.) amazonensis cathepsin B", "T1 construct": "gene CPC; native enzyme in amastigote lysate (hamster lesion amastigotes), not purified; activity defined by cathepsin B substrate and CA074", "assay_type": "biochemical, Leishmania amazonensis", "details": "substrate Abz-Gly-Ile-Val-Arg-Ala-Lys(Dnp)-OH 10 µM; pH 5.0, 37 °C, 2 mM DTT"}
{"smiles": "CCCNC(=O)[C@H]1O[C@@H]1C(=O)N[C@H](C(=O)N1CCC[C@H]1C(=O)O)[C@@H](C)CC", "note": "[CA074]", "values": [{"measurement": "IC50", "result": "0.7 ± 0.08", "unit": "µM"}]}
